Some test systems named below: HT29 colon; IGROV1 ovarian; A549 NSCLC; OVCAR-8 ovarian; CAKI-1 renal; SNB-19 CNS; MOLT-4 leukemia; UO-31 renal; U251 CNS; KM12 colon; SK-MEL-28 melanoma; TK-10 renal; MDA-MB-435; SK-OV-3 ovarian; BT-549 breast; OVCAR-3 ovarian; MALME-3M melanoma; SF-268 CNS.
Holding throughout (assay): DTP human tumour cell line panel, 48 h

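Results reflect a 48-hour exposure of cells in 96-well plates to compound at five concentrations. The concentration for full growth arrest is given as TGI.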 Some results are limits rather than exact numbers.

In the case of `COc1ccccc1C(C1=C(O)COC1=O)c1cc2c(cc1OC(C)=O)OCO2` (stereo not given), the total growth inhibition concentration (TGI) with HT29 colon, in the test with IGROV1 ovarian, with A549 NSCLC, in the test with OVCAR-8 ovarian, with CAKI-1 renal and in the test on SNB-19 CNS was more than 100 µM each time. Further, the TGI with MOLT-4 leukemia, in the test with UO-31 renal, in the test with U251 CNS, in the test with KM12 colon, in the test on SK-MEL-28 melanoma and in the test with TK-10 renal was more than 100 µM in each case. Further, the TGI with MDA-MB-435, in the test on SK-OV-3 ovarian, in the test with BT-549 breast, in the test with OVCAR-3 ovarian, in the test with MALME-3M melanoma and in the test with SF-268 CNS was more than 100 µM each time.
`O=C1C2=Cc3ccccc3OC2(O)Oc2cc(O)ccc21` (stereo not given): the TGI in the test on HT29 colon, with IGROV1 ovarian, with A549 NSCLC, in the test on OVCAR-8 ovarian, in the test on CAKI-1 renal and in the test with MOLT-4 leukemia was more than 100 µM each time. For the same compound, the TGI in the test with U251 CNS, in the test on KM12 colon, with SK-MEL-28 melanoma, in the test with TK-10 renal, with MDA-MB-435 and in the test on SK-OV-3 ovarian was more than 100 µM in each case. In addition, the total growth inhibition concentration (TGI) with BT-549 breast, in the test with OVCAR-3 ovarian, in the test with MALME-3M melanoma and in the test on SF-268 CNS was more than 100 µM throughout.
Regarding `CCOC(=O)CC(=O)C(=O)NNC1=NCCCN1`, the concentration for total growth inhibition (TGI) in the test with HT29 colon, in the test with IGROV1 ovarian, in the test on A549 NSCLC, in the test with OVCAR-8 ovarian, in the test with SNB-19 CNS and in the test with MOLT-4 leukemia was more than 100 µM in each case. The TGI in the test on UO-31 renal, with U251 CNS, with KM12 colon, in the test on SK-MEL-28 melanoma, in the test on TK-10 renal and with MDA-MB-435 was more than 100 µM in each case. The TGI in the test on SK-OV-3 ovarian, in the test with BT-549 breast, in the test on OVCAR-3 ovarian, in the test on MALME-3M melanoma and with SF-268 CNS was more than 100 µM in each case.
In the case of `CC(=O)OCC1OC(n2c(C)c(N=Nc3ccccc3)c(C)c(C#N)c2=S)C(OC(C)=O)C(OC(C)=O)C1OC(C)=O` (stereo not given), the TGI with HT29 colon, in the test with IGROV1 ovarian, in the test with A549 NSCLC, in the test with CAKI-1 renal, in the test on SNB-19 CNS and in the test on MOLT-4 leukemia was more than 100 µM in each case. Also, the TGI in the test on UO-31 renal is more than 100 µM; with KM12 colon, more than 100 µM; with SK-MEL-28 melanoma, more than 100 µM; with TK-10 renal, 81.8 µM; in the test on MDA-MB-435, more than 100 µM; in the test on SK-OV-3 ovarian it was more than 100 µM. Also, the TGI with BT-549 breast, in the test with OVCAR-3 ovarian, in the test on MALME-3M melanoma and in the test on SF-268 CNS was more than 100 µM in each case.
As to `COc1ccc(CNc2nc3cc(C(F)(F)F)ccc3nc2C(=O)O)cc1OC`, the concentration for total growth inhibition (TGI) with HT29 colon was more than 100 µM; in the test on IGROV1 ovarian, 66 µM; with A549 NSCLC, more than 100 µM; with OVCAR-8 ovarian it was more than 100 µM; with CAKI-1 renal, more than 100 µM; in the test on SNB-19 CNS, more than 100 µM. Further, the TGI in the test with MOLT-4 leukemia is 55.7 µM; with UO-31 renal, more than 100 µM; with U251 CNS it was 73.5 µM; in the test with KM12 colon it was more than 100 µM; in the test on SK-MEL-28 melanoma, more than 100 µM; in the test on MDA-MB-435 it was 80.2 µM. Besides, the TGI is more than 100 µM with SK-OV-3 ovarian, more than 100 µM in the test with BT-549 breast and 58.1 µM in the test on OVCAR-3 ovarian.
With `COC(=O)CCC(NC(=O)C(C)NC(=O)COC1C(O)C(OC(=O)CCNc2c3ccccc3nc3cccc([N+](=O)[O-])c23)OC(OCc2ccccc2)C1NC(C)=O)C(N)=O` (stereo not given), the TGI in the test with HT29 colon, in the test on IGROV1 ovarian, in the test on A549 NSCLC, in the test with OVCAR-8 ovarian, in the test with SNB-19 CNS and in the test on MOLT-4 leukemia was more than 10 µM in each case. In addition, the TGI with UO-31 renal, in the test with U251 CNS, in the test on KM12 colon, in the test with TK-10 renal, in the test on MDA-MB-435 and with SK-OV-3 ovarian was more than 10 µM throughout. Also, the TGI in the test with BT-549 breast is more than 10 µM; in the test with OVCAR-3 ovarian, more than 10 µM; with MALME-3M melanoma, 7.06 µM; in the test on SF-268 CNS, more than 10 µM.
On to `COc1ccc(C(=O)N2CCc3c([nH]c4ccccc34)C2C(=O)O)o1` (stereo not given), for which the TGI in the test with HT29 colon, with IGROV1 ovarian, in the test with A549 NSCLC, with OVCAR-8 ovarian, in the test on CAKI-1 renal and in the test on SNB-19 CNS was more than 10 µM in each case. In addition, the TGI in the test on MOLT-4 leukemia, in the test on U251 CNS, in the test with KM12 colon, with SK-MEL-28 melanoma, in the test with TK-10 renal and in the test on MDA-MB-435 was more than 10 µM throughout. For the same compound, the concentration for total growth inhibition (TGI) in the test on SK-OV-3 ovarian, with BT-549 breast, in the test on OVCAR-3 ovarian, in the test with MALME-3M melanoma and in the test with SF-268 CNS was more than 10 µM each time.

The record behind these values is PubChem BioAssay (NCI).
